Assay results published in ChEMBL document CHEMBL6078645, “Expanding the Solvent/Protein Region Occupation of the Non-Nucleoside Reverse Transcriptase Inhibitor Binding Pocket for Improved Broad-Spectrum Anti-HIV-1 Efficacy: from Rigid Phenyl-Diarylpyrimidines to Flexible Hydrophilic Piperidine-Diarylpyrimidines” (J Med Chem, 2024).
≈ marks a conversion by molar mass, not a printed value.

Key:
[1] = biological target: T1, Human immunodeficiency virus type 1 reverse transcriptase (Human immunodeficiency virus 1, UniProt Q72547); experiment: Inhibition of HIV-1 reverse transcriptase
[2] = test system: Human immunodeficiency virus 1; experiment: Antiviral activity against HIV-1 harboring Y188L mutant infected in human MT4 cells assessed as protection against virus-induced cytopathic effect incubated for 5 days by MTT assay; type: functional, organism-based; conditions: Human immunodeficiency virus 1, MT4, 120 h
[3] = test system: Human immunodeficiency virus 1; experiment: Antiviral activity against HIV-1 harboring F227L/V106A double mutant infected in human MT4 cells assessed as protection against virus-induced cytopathic effect incubated for 5 days by MTT assay; type: functional, organism-based; conditions: Human immunodeficiency virus 1, MT4, 120 h
[4] = test system: Human immunodeficiency virus 1; experiment: Antiviral activity against HIV-1 harboring RES056 mutant infected in human MT4 cells assessed as protection against virus-induced cytopathic effect incubated for 5 days by MTT assay; type: functional, organism-based; conditions: Human immunodeficiency virus 1, MT4, 120 h
[5] = Cytotoxicity against human MT4 cells assessed as reduction in cell viability incubated for 5 days by MTT assay; type: toxicity, cell-based; conditions: MT4 cells, time 5 day
[6] = Selectivity index, ratio of CC50 for cytotoxicity against human MT4 cells assessed as reduction in cell viability to EC50 for antiviral activity against wild type HIV-1 IIIB infected in human MT4 cells assessed as protection against virus-induced cytopathic effect; type: toxicity, cell-based; conditions: MT4 cells, read-out: Ratio CC50/EC50
[7] = test system: Human immunodeficiency virus 1; experiment: Antiviral activity against HIV-1 harboring L100I mutant infected in human MT4 cells assessed as protection against virus-induced cytopathic effect incubated for 5 days by MTT assay; type: functional, organism-based; conditions: Human immunodeficiency virus 1, MT4, 120 h
[8] = test system: Human immunodeficiency virus 1; experiment: Antiviral activity against HIV-1 harboring K103N mutant infected in human MT4 cells assessed as protection against virus-induced cytopathic effect incubated for 5 days by MTT assay; type: functional, organism-based; conditions: Human immunodeficiency virus 1, MT4, 120 h
[9] = test system: Human immunodeficiency virus 1; experiment: Antiviral activity against HIV-1 harboring Y181C mutant infected in human MT4 cells assessed as protection against virus-induced cytopathic effect incubated for 5 days by MTT assay; type: functional, organism-based; conditions: Human immunodeficiency virus 1, MT4, 120 h
[10] = test system: Human immunodeficiency virus 1; experiment: Antiviral activity against HIV-1 harboring E138K mutant infected in human MT4 cells assessed as protection against virus-induced cytopathic effect incubated for 5 days by MTT assay; type: functional, organism-based; conditions: Human immunodeficiency virus 1, MT4, 120 h
[11] = biological target: T1, Human immunodeficiency virus type 1 reverse transcriptase; experiment: Inhibition of wildtype recombinant HIV-1 Reverse transcriptase incubated for 40 mins by spectrofluorometric analysis
Cytochrome P450 1A2 = biological target: T2, Cytochrome P450 1A2 (Homo sapiens, UniProt P05177); experiment: (§1) Inhibition of CYP1A2 in human liver microsome preincubated with compound for 10 minutes followed NADPH addition and measured after 15 mins by LC-MS/MS analysis; type: ADME, microsomes
T2 sequence (P05177 whole entry): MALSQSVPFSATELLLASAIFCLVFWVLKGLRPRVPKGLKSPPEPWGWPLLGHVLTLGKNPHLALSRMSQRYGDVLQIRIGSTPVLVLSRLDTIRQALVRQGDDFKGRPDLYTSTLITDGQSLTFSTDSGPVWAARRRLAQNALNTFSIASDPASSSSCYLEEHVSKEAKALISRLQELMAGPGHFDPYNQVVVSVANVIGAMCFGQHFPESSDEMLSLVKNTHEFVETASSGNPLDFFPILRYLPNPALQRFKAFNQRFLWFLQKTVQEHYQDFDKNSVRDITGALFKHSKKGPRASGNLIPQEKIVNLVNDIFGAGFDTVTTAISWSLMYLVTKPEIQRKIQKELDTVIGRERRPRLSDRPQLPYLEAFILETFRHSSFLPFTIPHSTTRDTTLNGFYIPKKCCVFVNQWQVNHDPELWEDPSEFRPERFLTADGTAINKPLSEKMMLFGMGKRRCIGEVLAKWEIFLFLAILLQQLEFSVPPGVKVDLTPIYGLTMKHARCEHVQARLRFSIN

Cytochrome P450 2C19 = Cytochrome P450 2C19 (Homo sapiens, UniProt P33261); experiment: Inhibition of CYP2C19 in human liver microsome preincubated with compound for 10 minutes followed NADPH addition and measured after 15 mins by LC-MS/MS analysis; type: ADME, microsomes
Cytochrome P450 2C9 = Cytochrome P450 2C9 (Homo sapiens, UniProt P11712); experiment: (§2) Inhibition of CYP2C9 in human liver microsome preincubated with compound for 10 minutes followed NADPH addition and measured after 15 mins by LC-MS/MS analysis; type: ADME, microsomes
Cytochrome P450 2D6 = Cytochrome P450 2D6 (Homo sapiens, UniProt P10635); experiment: (§3) Inhibition of CYP2D6 in human liver microsome preincubated with compound for 10 minutes followed NADPH addition and measured after 15 mins by LC-MS/MS analysis; type: ADME, microsomes
Cytochrome P450 3A4 [12] = biological target: T3, Cytochrome P450 3A4 (Homo sapiens, UniProt P08684); experiment: (§4) Inhibition of CYP3A4 in human liver microsome using midazolam as substrate preincubated with compound for 10 minutes followed NADPH addition and measured after 15 mins by LC-MS/MS analysis; type: ADME, microsomes
Cytochrome P450 3A4 [13] = biological target: T3, Cytochrome P450 3A4; experiment: (§5) Inhibition of CYP3A4 in human liver microsome using testosterone as substrate preincubated with compound for 10 minutes followed NADPH addition and measured after 15 mins by LC-MS/MS analysis; type: ADME, microsomes
[14] = biological target: Voltage-gated inwardly rectifying potassium channel KCNH2 (Homo sapiens, UniProt Q12809); experiment: Inhibition of hERG potassium channel stably expressed in CHO cells at -80 mV holding potential by whole-cell patch-clamp analysis; type: toxicity, cell-based
[15] = Solubility of compound in phosphate buffer at pH 2 incubated for 24 hrs by HPLC analysis; type: physicochemical
[16] = Solubility of compound in phosphate buffer at pH 7 incubated for 24 hrs by HPLC analysis; type: physicochemical
[17] = Solubility of compound in phosphate buffer at pH 7.4 incubated for 24 hrs by HPLC analysis; type: physicochemical
[18] = Solubility of compound incubated for 24 hrs by HPLC analysis; type: physicochemical
[19] = Acute toxicity in SPF ICR mouse at 2 mg/kg, IG measured for 2 weeks; type: organism-based; conditions: in vivo, po, 336 h
[20] = Acute toxicity in SPF ICR mouse assessed as mortality at 2 mg/kg, IG measured for 2 weeks; type: organism-based; conditions: in vivo, po, 336 h
[21] = Acute toxicity in SPF ICR mouse assessed as change in body weight at 2 mg/kg, IG measured for 2 weeks; type: organism-based; conditions: in vivo, po, 336 h
[22] = Acute toxicity in SPF ICR mouse assessed as abnormal behavior at 2 mg/kg, IG measured for 2 weeks; type: organism-based; conditions: in vivo, po, 336 h
[23] = Acute toxicity in SPF ICR mouse assessed as distress at 2 mg/kg, IG measured for 2 weeks; type: organism-based; conditions: in vivo, po, 336 h
[24] = Acute toxicity in SPF ICR mouse assessed as pathological change in heart at 2 mg/kg, IG measured on day 14; type: organism-based; conditions: in vivo, po, 336 h, time 14 day
[25] = Acute toxicity in SPF ICR mouse assessed as pathological change in liver at 2 mg/kg, IG measured on day 14; type: organism-based; conditions: in vivo, po, 336 h, time 14 day
[26] = Acute toxicity in SPF ICR mouse assessed as pathological change in spleen at 2 mg/kg, IG measured on day 14; type: organism-based; conditions: in vivo, po, 336 h, time 14 day
[27] = Acute toxicity in SPF ICR mouse assessed as pathological change in lung at 2 mg/kg, IG measured on day 14; type: organism-based; conditions: in vivo, po, 336 h, time 14 day
[28] = Acute toxicity in SPF ICR mouse assessed as pathological change in kidney at 2 mg/kg, IG measured on day 14; type: organism-based; conditions: in vivo, po, 336 h, time 14 day
[29] = Acute toxicity in SPF ICR mouse assessed as pathological change in brain at 2 mg/kg, IG measured on day 14; type: organism-based; conditions: in vivo, po, 336 h, time 14 day
[30] = Acute toxicity in SPF ICR mouse assessed as heart damage at 2 mg/kg, IG measured on day 14; type: organism-based; conditions: in vivo, po, 336 h, time 14 day
[31] = Acute toxicity in SPF ICR mouse assessed as liver damage at 2 mg/kg, IG measured on day 14; type: organism-based; conditions: in vivo, po, 336 h, time 14 day
[32] = Acute toxicity in SPF ICR mouse assessed as spleen damage at 2 mg/kg, IG measured on day 14; type: organism-based; conditions: in vivo, po, 336 h, time 14 day
[33] = Acute toxicity in SPF ICR mouse assessed as lung damage at 2 mg/kg, IG measured on day 14; type: organism-based; conditions: in vivo, po, 336 h, time 14 day
[34] = Acute toxicity in SPF ICR mouse assessed as kidney damage at 2 mg/kg, IG measured on day 14; type: organism-based; conditions: in vivo, po, 336 h, time 14 day
[35] = Acute toxicity in SPF ICR mouse assessed as brain damage at 2 mg/kg, IG measured on day 14; type: organism-based; conditions: in vivo, po, 336 h, time 14 day
CYP1A2 = biological target: T4, CYP1A2 (Homo sapiens, UniProt P05177); experiment: as §1; type: ADME, microsomes; conditions: human, human liver microsomes
T4 sequence (P05177 whole entry): T2 sequence (P05177 whole entry)

CYP2C9 = CYP2C9 (Homo sapiens, UniProt P11712); experiment: as §2; type: ADME, microsomes; conditions: human, human liver microsomes
CYP2D6 = CYP2D6 (Homo sapiens, UniProt P10635); experiment: as §3; type: ADME, microsomes; conditions: human, human liver microsomes
CYP3A4 [36] = biological target: T5, CYP3A4 (Homo sapiens, UniProt P08684); experiment: as §4; type: ADME, microsomes; conditions: human, human liver microsomes, probe midazolam
CYP3A4 [37] = biological target: T5, CYP3A4; experiment: as §5; type: ADME, microsomes; conditions: human, human liver microsomes, probe testosterone

Chain of Cytochrome P450 2C19 (P33261 whole entry): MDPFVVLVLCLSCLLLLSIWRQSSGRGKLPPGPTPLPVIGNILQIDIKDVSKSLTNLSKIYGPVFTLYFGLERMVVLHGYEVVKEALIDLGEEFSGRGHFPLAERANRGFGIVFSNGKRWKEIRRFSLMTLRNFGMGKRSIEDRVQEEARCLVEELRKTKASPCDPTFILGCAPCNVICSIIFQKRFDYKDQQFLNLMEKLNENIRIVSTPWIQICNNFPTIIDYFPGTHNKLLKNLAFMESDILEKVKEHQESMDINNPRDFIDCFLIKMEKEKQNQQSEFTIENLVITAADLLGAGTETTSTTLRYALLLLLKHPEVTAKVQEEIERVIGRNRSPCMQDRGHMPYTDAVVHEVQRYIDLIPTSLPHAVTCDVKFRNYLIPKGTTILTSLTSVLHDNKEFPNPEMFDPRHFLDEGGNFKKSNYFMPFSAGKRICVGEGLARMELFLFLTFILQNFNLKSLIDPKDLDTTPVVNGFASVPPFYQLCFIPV
T5 sequence (P08684 whole entry): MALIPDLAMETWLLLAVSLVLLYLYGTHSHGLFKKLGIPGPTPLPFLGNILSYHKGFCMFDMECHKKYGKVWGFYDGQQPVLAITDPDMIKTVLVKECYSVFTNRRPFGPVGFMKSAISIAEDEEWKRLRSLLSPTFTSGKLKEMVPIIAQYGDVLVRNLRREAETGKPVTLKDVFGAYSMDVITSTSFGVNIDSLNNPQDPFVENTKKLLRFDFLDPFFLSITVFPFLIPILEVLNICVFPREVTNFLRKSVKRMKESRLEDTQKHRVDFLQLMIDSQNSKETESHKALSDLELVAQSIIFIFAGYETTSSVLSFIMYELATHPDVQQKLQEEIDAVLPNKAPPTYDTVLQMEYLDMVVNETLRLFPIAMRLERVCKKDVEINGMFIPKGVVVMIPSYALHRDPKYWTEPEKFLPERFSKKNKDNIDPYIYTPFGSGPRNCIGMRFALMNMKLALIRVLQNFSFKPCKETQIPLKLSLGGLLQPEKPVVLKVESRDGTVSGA
T3 sequence (P08684 whole entry): as above
Chain of Cytochrome P450 2C9 (P11712 whole entry): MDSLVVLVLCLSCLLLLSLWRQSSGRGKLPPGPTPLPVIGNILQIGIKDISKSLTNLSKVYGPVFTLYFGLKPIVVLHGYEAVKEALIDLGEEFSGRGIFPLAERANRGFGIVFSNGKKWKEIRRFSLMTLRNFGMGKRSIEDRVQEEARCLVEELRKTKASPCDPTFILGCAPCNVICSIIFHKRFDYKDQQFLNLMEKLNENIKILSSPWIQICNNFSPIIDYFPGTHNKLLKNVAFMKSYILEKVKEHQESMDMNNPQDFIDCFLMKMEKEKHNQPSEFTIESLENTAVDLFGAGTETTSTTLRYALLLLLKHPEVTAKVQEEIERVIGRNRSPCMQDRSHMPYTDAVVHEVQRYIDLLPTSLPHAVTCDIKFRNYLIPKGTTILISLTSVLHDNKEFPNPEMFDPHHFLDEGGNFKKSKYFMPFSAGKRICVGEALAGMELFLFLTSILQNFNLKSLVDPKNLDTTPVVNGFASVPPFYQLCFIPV
Chain of CYP2C9 (P11712 whole entry): as above
Chain of CYP2D6 (P10635 whole entry): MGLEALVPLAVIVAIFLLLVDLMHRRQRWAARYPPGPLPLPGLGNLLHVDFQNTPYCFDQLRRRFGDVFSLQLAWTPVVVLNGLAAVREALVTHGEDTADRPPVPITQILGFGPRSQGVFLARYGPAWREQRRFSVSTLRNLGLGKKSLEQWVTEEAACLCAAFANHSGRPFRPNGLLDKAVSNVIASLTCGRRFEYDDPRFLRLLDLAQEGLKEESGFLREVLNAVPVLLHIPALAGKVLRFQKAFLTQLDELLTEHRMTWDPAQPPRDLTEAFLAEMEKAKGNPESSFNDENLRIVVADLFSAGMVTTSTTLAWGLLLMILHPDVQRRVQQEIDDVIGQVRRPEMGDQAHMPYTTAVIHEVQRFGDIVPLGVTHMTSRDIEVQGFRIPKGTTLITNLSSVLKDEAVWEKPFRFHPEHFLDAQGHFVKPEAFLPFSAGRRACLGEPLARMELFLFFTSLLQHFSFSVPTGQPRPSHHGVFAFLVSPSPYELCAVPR
Chain of Cytochrome P450 2D6 (P10635 whole entry): as above
Chain of Voltage-gated inwardly rectifying potassium channel KCNH2 (Q12809 whole entry): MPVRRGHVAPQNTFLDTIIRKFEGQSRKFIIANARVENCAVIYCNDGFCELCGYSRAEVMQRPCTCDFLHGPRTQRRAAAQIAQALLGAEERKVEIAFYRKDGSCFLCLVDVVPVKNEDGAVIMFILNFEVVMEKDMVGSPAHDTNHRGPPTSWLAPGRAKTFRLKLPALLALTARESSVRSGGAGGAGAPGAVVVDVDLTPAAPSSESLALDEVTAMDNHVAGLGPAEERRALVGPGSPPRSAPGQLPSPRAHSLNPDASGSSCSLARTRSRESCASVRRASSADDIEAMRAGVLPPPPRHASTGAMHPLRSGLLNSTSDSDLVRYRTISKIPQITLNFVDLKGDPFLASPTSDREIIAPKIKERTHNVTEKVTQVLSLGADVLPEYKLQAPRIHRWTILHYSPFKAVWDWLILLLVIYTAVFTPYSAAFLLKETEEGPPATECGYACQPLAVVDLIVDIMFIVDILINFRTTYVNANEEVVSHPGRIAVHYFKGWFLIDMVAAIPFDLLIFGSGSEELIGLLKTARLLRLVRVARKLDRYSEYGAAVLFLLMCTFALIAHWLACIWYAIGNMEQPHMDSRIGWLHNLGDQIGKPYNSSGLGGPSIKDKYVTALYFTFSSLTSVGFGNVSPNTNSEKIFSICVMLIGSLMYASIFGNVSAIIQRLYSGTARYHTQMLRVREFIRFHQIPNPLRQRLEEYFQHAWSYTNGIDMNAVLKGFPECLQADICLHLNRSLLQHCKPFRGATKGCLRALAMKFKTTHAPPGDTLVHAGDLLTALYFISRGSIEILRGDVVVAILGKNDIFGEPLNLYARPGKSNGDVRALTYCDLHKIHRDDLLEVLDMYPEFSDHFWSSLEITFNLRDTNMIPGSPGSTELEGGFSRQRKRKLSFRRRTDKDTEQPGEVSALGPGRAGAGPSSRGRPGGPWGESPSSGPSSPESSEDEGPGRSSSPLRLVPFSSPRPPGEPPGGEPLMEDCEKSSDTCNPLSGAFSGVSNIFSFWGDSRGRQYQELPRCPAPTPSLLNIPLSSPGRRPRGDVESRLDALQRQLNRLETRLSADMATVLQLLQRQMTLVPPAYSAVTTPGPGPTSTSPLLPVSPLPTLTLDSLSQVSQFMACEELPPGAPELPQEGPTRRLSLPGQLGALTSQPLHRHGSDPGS

## Cc1cc(-c2ccc(C#N)cc2)cc(C)c1Oc1nc(NC2CCN(Cc3ccc(S(N)(=O)=O)cc3)CC2)ncc1CO
[1]
  EC50: 3 nM
[2]
  EC50: 23 nM
[3]
  EC50: 15 nM
[4]
  EC50: 45 nM
[5]
  CC50 at 120 h: 18200 nM
[6]
  selectivity ratio: 6540
[7]
  EC50: 9 nM
[8]
  EC50: 9 nM
[9]
  EC50: 10 nM
[10]
  EC50: 8 nM
[11]
  IC50: 293 nM
Cytochrome P450 1A2
  IC50: 50000 nM
Cytochrome P450 2C19
  IC50: 25700 nM
Cytochrome P450 2C9
  IC50: 17600 nM
Cytochrome P450 2D6
  IC50: 50000 nM
Cytochrome P450 3A4 [12]
  IC50: 50000 nM
Cytochrome P450 3A4 [13]
  IC50: 50000 nM
[14]
  IC50: 20000 nM
[15]
  solubility at 24 h: 3520 µg/mL (≈ 5890 µM)
[16]
  solubility at 24 h: < 1 µg/mL
[17]
  solubility at 24 h: < 1 µg/mL
[18]
  solubility at 24 h: < 1 µg/mL
[19]
  Activity: Non-toxic
[20]
  Activity: Non-toxic
[21]
  Activity: Non-toxic
[22]
  Activity: Non-toxic
[23]
  Activity: Non-toxic
[24]
  Activity: Non-toxic
[25]
  Activity: Non-toxic
[26]
  Activity: Non-toxic
[27]
  Activity: Non-toxic
[28]
  Activity: Non-toxic
[29]
  Activity: Non-toxic
[30]
  Activity: Non-toxic
[31]
  Activity: Non-toxic
[32]
  Activity: Non-toxic
[33]
  Activity: Non-toxic
[34]
  Activity: Non-toxic
[35]
  Activity: Non-toxic

## N#Cc1ccc(Nc2ncc(CO)c(Oc3c(F)cc(-c4ccc(C#N)cc4)cc3F)n2)cc1
[1]
  EC50: 1 nM
[2]
  EC50: 161 nM
[3]
  EC50: 1100 nM
[4]
  EC50: 969 nM
[5]
  CC50 at 120 h: 226000 nM
[6]
  selectivity ratio: 256000
[7]
  EC50: 8 nM
[8]
  EC50: 2 nM
[9]
  EC50: 15 nM
[10]
  EC50: 4 nM
CYP1A2
  IC50 at 15 min: > 25000 nM
Cytochrome P450 2C19
  IC50: 14000 nM
CYP2C9
  IC50 at 15 min: > 25000 nM
CYP2D6
  IC50 at 15 min: > 25000 nM
CYP3A4 [36]
  IC50 at 15 min: > 25000 nM
CYP3A4 [37]
  IC50 at 15 min: > 25000 nM
